This note sets out measurements from ChEMBL document CHEMBL1130617, “S-aryl cysteine S,S-dioxides as inhibitors of mammalian kynureninase” (Bioorg Med Chem Lett, 1998).

pIC50, pKi: −log10 of the molar value.

Test [1] concerns the target T1, Kynureninase (Rattus norvegicus, UniProt P70712).
T1 sequence (P70712 whole entry): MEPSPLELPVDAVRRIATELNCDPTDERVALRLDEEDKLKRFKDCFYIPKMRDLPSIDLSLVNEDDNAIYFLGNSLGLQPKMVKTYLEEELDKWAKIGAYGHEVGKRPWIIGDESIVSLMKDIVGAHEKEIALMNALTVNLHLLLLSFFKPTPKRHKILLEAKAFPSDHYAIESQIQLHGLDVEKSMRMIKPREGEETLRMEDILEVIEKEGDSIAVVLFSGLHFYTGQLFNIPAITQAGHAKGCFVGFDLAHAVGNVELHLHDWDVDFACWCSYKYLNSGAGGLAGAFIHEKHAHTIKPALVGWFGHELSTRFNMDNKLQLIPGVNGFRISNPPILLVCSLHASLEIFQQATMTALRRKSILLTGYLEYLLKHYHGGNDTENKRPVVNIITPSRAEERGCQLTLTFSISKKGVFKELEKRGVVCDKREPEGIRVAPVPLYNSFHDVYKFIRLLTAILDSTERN
Description: Compound was tested for the binding affinity against kynureninase in rat liver.

The target in test [2] is T1, Kynureninase. Description: Compound was tested for the inhibition of mammalian kynureninase in rat liver. The class given is tissue-based.

The compound `Nc1ccccc1S(=O)(=O)CC(N)C(=O)O` (stereo not given) had a pKi in test [1] of 4.74. Besides, in test [2], the negative-log IC50 (pIC50) was 4.44.
`Cc1ccc(N)c(S(=O)(=O)CC(N)C(=O)O)c1` (stereo not given): the pIC50 in test [2] is 4.96.
`Nc1c(F)cccc1S(=O)(=O)CC(N)C(=O)O` (stereo not given): the pIC50 in test [2] was 4.70.
Same read-out and setting: the same measure for `COc1cccc(S(=O)(=O)CC(N)C(=O)O)c1N` (stereo not given): 4.54.
